Where two headings read alike, the source gives them in different places.
Assays:
Magnaporthe grisea = assay type: in vivo, Magnaporthe grisea (Pyricularia oryzae); details: rice, preventive
several fungal species = test: Leaf disc or leaf segment tests, summary over several fungal species; assay type: in vivo; details: foliar; leaf disc and leaf segment tests; read-out: concentration from which fungal growth is reduced
Description: Leaf disks or leaf segments of various plant species were cut from plants grown in the greenhouse. The cut leaf discs or segments were placed in multiwell plates (24-well format) onto water agar. The leaf disks were sprayed with a test solution before (preventative) or after (curative) inoculation. Compounds to be tested were prepared as water solutions (max. 10 mg/ml) which were diluted to the appropriate concentration with 0.025% Tween20 just before spraying. The inoculated leaf discs or segments were incubated under defined conditions (temperature, relative humidity, light, etc.) according to the respective test system. A single evaluation of disease level was carried out 3-9 days days after inoculation, depending on the pathosystem. Percent disease control relative to the untreated check leaf discs or segments was then calculated.
Wheat leaf segments cv. Kanzler were placed on agar in multiwell plates (24-well format) and sprayed with the formulated test compound diluted in water. […] The inoculated leaf segments were incubated at 19 °C and 75% rh under a light regime of 12 h light/12 h darkness in a climate cabinet and the activity of a compound was assessed as percent disease control compared to untreated leaf when an appropriate level of disease damage appeared in untreated check leaf segments (7-9 days after application). […]

CC(=O)NC1C(OCC(OC2OC(CO)C(O)C(O)C2O)C2OC(OC3C(O)C(CO)OC(OC4(CO)OC(C(O)CO)C(O)C4OC4OC(CO)C(O)C(O)C4O)C3O)C(O)C(O)C2OC2OC(C(O)CO)C(O)C(O)C2OC2OCC(OC(N)=O)C(O)C2O)OC(CO)C(O)C1O (stereo not shown) [compound of Formula (I)]
% reduction fungal growth (Magnaporthe grisea; 0.80 ppm): 0% | % reduction fungal growth (Magnaporthe grisea; 2.50 ppm): 0% | % reduction fungal growth (Magnaporthe grisea; 7.40 ppm): 0% | % reduction fungal growth (Magnaporthe grisea; 22.00 ppm): 60% | % reduction fungal growth (Magnaporthe grisea; 67.00 ppm): 70% | % reduction fungal growth (Magnaporthe grisea; 200.00 ppm): 100% | minimal effective concentration (several fungal species): ≥ 22 µg/mL
